Experimental data: patent US7713994B2 (Wyeth LLC, priority 2005, dated 2010)
Where two headings read alike, the source gives them in different places.

What was measured:
[1] = test system: HCT-116; assay: Cytotoxicity assay (SRB), HCT-116; assay type: cell-based; settings: Homo sapiens, HCT-116, 72 h, HCT116 cells, SRB, read-out: In Vitro Cellular Activity IC50 HCT116
In short: (§1)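 BT474 (12000 cells/well) was treated for 6 days, whereas HCT-116 (4000), LoVo (6000) and MCF-7 (6000) were treated for 3 days, all in RPMI 1640 containing 5% FBS. Surviving-cell percentage came from SRB dye binding measured at 540 nm.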

[2] = test system: MCF-7; assay: Cytotoxicity assay (SRB), MCF-7; assay type: cell-based; settings: Homo sapiens, MCF7, 72 h, MCF-7 cells, SRB, read-out: In Vitro Cellular Activity IC50 MCF-7
In short: as §1

[3] = target: T1, cyclin B/CDK1 enzyme (Homo sapiens, UniProt P06493); assay: CDK1 ELISA kinase assay (phospho-Rb ser 795 detection); assay type: biochemical
T1 construct: purchased New England BioLabs; host or cells: Sf9 insect cells, recombinant baculovirus
In short: (§2)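 Screening was done at 10 ug/ml compound. Each partially purified cyclin/CDK complex, produced in baculovirus-infected Sf9 cells, phosphorylated a coated GST-Rb C-terminal fragment with 200 μM ATP, and Ser795 phosphorylation was quantified by HRP-ELISA at 450 nm.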

[4] = test system: BT474; assay: Cytotoxicity assay (SRB), BT474; assay type: cell-based
In short: as §1

[5] = target: T2, cyclin E/CDK2 enzyme (Homo sapiens, UniProt P24941); assay: CDK2 ELISA kinase assay (phospho-Rb ser 795 detection); assay type: biochemical
T2 construct: made in house; host or cells: Sf9 insect cells, recombinant baculovirus
In short: as §2

[6] = test system: LoVo; assay: Cytotoxicity assay (SRB), LoVo; assay type: cell-based; settings: Homo sapiens, LoVo, 72 h, LoVo cells, SRB, read-out: In Vitro Cellular Activity IC50 LOVO
In short: as §1

[7] = target: T3, cyclin D1/cdk 4 enzyme (Homo sapiens, UniProt P11802); assay: CDK4 ELISA kinase assay (phospho-Rb ser 795 detection); assay type: biochemical
T3 construct: made in house; host or cells: Sf9 insect cells, recombinant baculovirus
In short: as §2

[8] = In Vitro Enzyme Assays, read-out: CDK1 IC50
[9] = Homo sapiens, BT-474, 144 h, BT474 cells, SRB, 6 days; read-out: In Vitro Cellular Activity IC50 BT474
[10] = In Vitro Enzyme Assays, read-out: CDK2 IC50
[11] = In Vitro Enzyme Assays, 200 μM ATP, read-out: CDK4 IC50
[12] = Homo sapiens, BT-474, 144 h, BT474 cells, 6 days, SRB; read-out: In Vitro Cellular Activity IC50 BT474
[13] = In Vitro Enzyme Assay, cyclin B/CDK1, read-out: CDK1 IC50
[14] = In Vitro Enzyme Assay, cyclin E/CDK2, read-out: CDK2 IC50
[15] = In Vitro Enzyme Assay, cyclin D1/cdk 4, read-out: CDK4 IC50

T1 sequence (P06493 whole entry): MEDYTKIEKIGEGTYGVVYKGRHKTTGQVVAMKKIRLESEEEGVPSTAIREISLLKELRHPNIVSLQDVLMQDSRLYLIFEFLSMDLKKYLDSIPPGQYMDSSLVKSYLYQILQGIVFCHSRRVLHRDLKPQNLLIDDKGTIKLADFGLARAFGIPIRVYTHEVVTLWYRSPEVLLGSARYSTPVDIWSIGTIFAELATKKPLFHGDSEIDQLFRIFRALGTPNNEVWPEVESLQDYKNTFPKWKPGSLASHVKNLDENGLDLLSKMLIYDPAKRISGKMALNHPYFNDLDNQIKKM
T1 sequence (P14635 whole entry partner): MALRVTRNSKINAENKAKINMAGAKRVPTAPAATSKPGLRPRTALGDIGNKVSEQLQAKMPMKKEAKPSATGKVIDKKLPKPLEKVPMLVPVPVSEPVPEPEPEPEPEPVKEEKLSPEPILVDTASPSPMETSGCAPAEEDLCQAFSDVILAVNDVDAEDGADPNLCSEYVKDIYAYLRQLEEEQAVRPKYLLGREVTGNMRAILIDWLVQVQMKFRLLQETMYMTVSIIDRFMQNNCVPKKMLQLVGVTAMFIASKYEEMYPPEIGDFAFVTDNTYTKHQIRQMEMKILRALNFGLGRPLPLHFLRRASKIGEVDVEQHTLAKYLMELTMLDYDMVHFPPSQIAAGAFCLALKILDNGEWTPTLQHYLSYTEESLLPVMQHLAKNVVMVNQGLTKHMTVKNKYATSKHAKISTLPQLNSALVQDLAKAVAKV
T3 sequence (P11802 whole entry, species assumed): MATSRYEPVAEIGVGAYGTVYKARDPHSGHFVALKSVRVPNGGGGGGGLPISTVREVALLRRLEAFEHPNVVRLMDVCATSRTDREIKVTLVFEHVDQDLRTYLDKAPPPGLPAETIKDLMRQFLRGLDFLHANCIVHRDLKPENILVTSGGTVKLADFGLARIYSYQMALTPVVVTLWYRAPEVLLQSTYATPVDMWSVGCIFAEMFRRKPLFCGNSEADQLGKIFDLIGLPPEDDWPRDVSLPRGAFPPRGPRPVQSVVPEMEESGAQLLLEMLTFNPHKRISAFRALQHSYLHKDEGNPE
T3 sequence (P24385 whole entry partner, species assumed): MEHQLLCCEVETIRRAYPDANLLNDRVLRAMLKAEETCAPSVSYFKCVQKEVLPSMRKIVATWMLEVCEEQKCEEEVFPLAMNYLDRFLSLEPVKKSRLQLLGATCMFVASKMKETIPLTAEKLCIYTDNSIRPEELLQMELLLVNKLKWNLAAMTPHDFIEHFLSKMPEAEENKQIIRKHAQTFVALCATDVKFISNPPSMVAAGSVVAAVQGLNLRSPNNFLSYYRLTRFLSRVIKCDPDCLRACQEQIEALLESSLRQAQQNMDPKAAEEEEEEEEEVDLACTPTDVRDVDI

| Compound | IC50 ([1]; three days) [µM] | IC50 ([2]; three days) [µM] | melting point | IC50 [3, 8] [µM] | IC50 [4, 9] [µM] | IC50 [5, 10] [µM] | IC50 ([6]; three days) [µM] | IC50 [7, 11] [µM] | IC50 ([1]; 3 days) [µM] | IC50 ([2]; 3 days) [µM] | IC50 [4, 12] [µM] | IC50 ([6]; 3 days) [µM] | IC50 [3, 13] [µM] | IC50 [5, 14] [µM] | IC50 [7, 15] [µM] |
| --- | --- | --- | --- | --- | --- | --- | --- | --- | --- | --- | --- | --- | --- | --- | --- |
| Cc1cc(N/C=C2\C(=O)NC(=O)c3ccc(-c4ccoc4)cc32)cnc1N1C[C@@H](C)N[C@@H](C)C1 [Example 355, (4Z)-4-[({6-[(3R,5S)-3,5-Dimethylpiperazin-1-yl]-5-methylpyridin-3-yl}amino)methylene]-6-(3-furyl)isoquinoline-1,3(2H,4H)-dione] | 1.2 | 1.4 | 195 to 196 °C | > 50 | 1.7 | > 50 | 2 | 0.36 |  |  |  |  |  |  |  |
| O=C1NC(=O)c2ccc(Br)cc2/C1=C/Nc1cc(F)c(N2CCN3CCC[C@H]3C2)c(F)c1 [Example 370, (4Z)-6-Bromo-4-[({3,5-difluoro-4-[(8aS)-hexahydropyrrolo[1,2-a]pyrazin-2(1H)-yl]phenyl}amino)methylene]isoquinoline-1,3(2H,4H)-dione] | 4.2 | 6.7 | 190 to 191 °C | 42.5 | 6.3 | > 50 | 6.4 | 21.1 |  |  |  |  |  |  |  |
| CN(C)CCN1CCN(/C=C2\C(=O)NC(=O)c3ccc(Br)cc32)CC1 [Example 106, (4Z)-6-Bromo-4-({4-[2-(dimethylamino)ethyl]piperazin-1-yl}methylene)isoquinoline-1,3(2H,4H)-dione] | > 50 | > 50 | 166 to 167 °C | > 50 | 44.6 | > 50 | > 50 | 31.5 |  |  |  |  |  |  |  |
| O=C1NC(=O)c2ccc(I)cc2/C1=C/Nc1ccc(CN2CCC(O)CC2)cc1 [Example 440, (4Z)-4-[({4-[(4-Hydroxypiperidin-1-yl)methyl]phenyl}amino)methylene]-6-iodoisoquinoline-1,3(2H,4H)-dione] |  |  | 255 to 256 °C | 27.7 |  | 19.3 |  | 0.35 | 3.2 | 1.6 | 1.6 | 4 |  |  |  |
| O=C1NC(=O)c2ccc(-c3ccsc3)cc2/C1=C/Nc1cc(F)c(N2CCN3CCC[C@H]3C2)c(F)c1 [Example 371, (4Z)-4-[({3,5-Difluoro-4-[(8aS)-hexahydropyrrolo[1,2-a]pyrazin-2(1H)-yl]phenyl}amino)-methylene]-6-thien-3-ylisoquinoline-1,3(2H,4H)-dione] | 1.1 | 4.1 | 190 to 191 °C | > 50 | 3.1 | > 50 | 2.8 | 0.1 |  |  |  |  |  |  |  |
| O=C1NC(=O)c2ccc(-c3ccc(C(F)(F)F)cc3)cc2/C1=C/Nc1ccc(CN2CCCC2)cc1 [Example 282, (4Z)-4-({[4-(Pyrrolidin-1-ylmethyl)phenyl]amino}methylene)-6-[4-(trifluoromethyl)phenyl]isoquinoline-1,3(2H,4H)-dione] | 1.1 | 1.1 | 176 to 177 °C | > 50 | 3 | > 50 | 2.7 | 27.7 |  |  |  |  |  |  |  |
| C[C@@H]1CN(c2ccc(N/C=C3\C(=O)NC(=O)c4ccc(I)cc43)cc2F)C[C@H](C)N1 [Example 319, (4Z)-4-[({4-[(3R,5S)-3,5-Dimethylpiperazin-1-yl]-3-fluorophenyl}amino)methylene]-6-iodoisoquinoline-1,3(2H,4H)-dione] | 1.5 | 2.6 | 173 to 174 °C | > 50 | 3.1 | > 50 | 2.1 | 1.4 |  |  |  |  |  |  |  |
| Cl.O=C1NC(=O)c2ccc(Br)cc2C1=NNc1ccc(CN2CCCCC2)cc1 [Example 144, 6-Bromo-4-[(4-piperidin-1-ylmethyl-phenyl)-hydrazono]-4H-isoquinoline-1,3-dione Hydrochloride] | 1.5 | 3.2 | 298 to 299 °C (dec.) | > 50 | 3.2 | > 50 | 3.2 | 1.9 |  |  |  |  |  |  |  |
| O=C1NCc2ccccc2C1=CNc1ccc(CN2CCCCC2)cc1 [Example 162, 4-[(4-Piperidin-1-ylmethyl-phenylamino)-methylene]-1,4-dihydro-2H-isoquinolin-3-one] | 4.4 | 3.9 | 188 to 189 °C (dec.) | > 50 | 23 | > 50 | 9.2 | 18.6 |  |  |  |  |  |  |  |
| COc1ccc(-c2ccc3c(c2)/C(=C/Nc2ccc(N4C[C@@H](C)N[C@@H](C)C4)c(F)c2)C(=O)NC3=O)cc1 [Example 345, (4Z)-4-[({4-[(3R,5S)-3,5-Dimethylpiperazin-1-yl]-3-fluorophenyl}amino)methylene]-6-(4-methoxyphenyl)isoquinoline-1,3(2H,4H)-dione] | 0.94 | 1.4 | 227 to 228 °C | 28.3 | 0.91 | 43.4 | 1.2 | 15.4 |  |  |  |  |  |  |  |
| O=C1NC(=O)c2ccc(/C=C/CCCCl)cc2/C1=C/Nc1ccc(CN2CCCCC2)cc1 [Example 112, (4Z)-6-[(1E)-5-Chloropent-1-enyl]-4-({[4-(piperidin-1-ylmethyl)phenyl]amino}methylene)isoquinoline-1,3(2H,4H)-dione] | 0.98 | 3.3 | 268 to 269 °C | 3.8 | 2.3 | > 50 | 1.9 | 2.9 |  |  |  |  |  |  |  |
| CN1CCN(c2ccc(N/C=C3\C(=O)NC(=O)c4ccc(I)cc43)cn2)CC1 [Example 237, (4Z)-6-Iodo-4-({[6-(4-methylpiperazin-1-yl)pyridin-3-′yl]amino}methylene)isoquinoline-1,3(2H,4H)-dione] | 2.6 | 4 | 189 to 190 °C | 32.4 | 3.2 | 22.6 | 7.4 | 0.44 |  |  |  |  |  |  |  |
| CN1CCN(c2ccc(N/C=C3\C(=O)NC(=O)c4ccc(C#Cc5ccsc5)cc43)cc2)CC1 [Example 187, (4Z)-4-({[4-(4-Methylpiperazin-1-yl)phenyl]amino}methylene)-6-(thien-3-ylethynyl)-isoquinoline-1,3(2H,4H)-dione] | 1.1 | 3 | 193 to 194 °C | 1.7 | 2.9 | 3.3 | 8.5 | 2.3 |  |  |  |  |  |  |  |
| C[C@@H]1CN(c2ccc(N/C=C3\C(=O)NC(=O)c4ccc(-c5ccsc5)cc43)cc2)C[C@H](C)N1C(=O)CN(C)C [Example 380, (4Z)-4-[({4-[(3R,5S)-4-(N,N-Dimethylglycyl)-3,5-dimethylpiperazin-1-yl]phenyl}amino)methylene]-6-thien-3-ylisoquinoline-1,3(2H,4H)-dione] | 0.5 | 3.4 | 198 to 199 °C | 42.5 | 9.1 | > 50 | 8.2 | 0.1 |  |  |  |  |  |  |  |
| CCC(=O)Nc1cnc(CN/C=C2\C(=O)NC(=O)c3ccc(I)cc32)cc1O [Example 470, N-(4-Hydroxy-6-{[(6-iodo-1,3-dioxo-2,3-dihydro-1H-isoquinolin-4-ylidenemethyl)-amino]-methyl}-pyridin-3-yl)-propionamide] |  |  | 210 to 218 °C (dec.) |  |  |  |  |  | 20.9 | 37.8 | 2 | 19.1 | 2.5 | 0.19 | 0.05 |
| CCCOc1cn(C)c(CN/C=C2\C(=O)NC(=O)c3ccc(I)cc32)cc1=O [Example 471, 6-Iodo-4-{[(1-methyl-4-oxo-5-propoxy-1,4-dihydro-pyridin-2-ylmethyl)-amino]-methylene}-4H-isoquinoline-1,3-dione] |  |  | 176 to 196 °C (dec.) |  |  |  |  |  | > 50 | > 50 | 21.9 | > 50 | > 50 | 28.7 | 0.007 |
